The results in this text go back to ChEMBL document CHEMBL5143516, “Design, synthesis, and biological evaluation of N-(3-cyano-1H-indol-5/6-yl)-6-oxo-1,6-dihydropyrimidine-4-carboxamides and 5-(6-oxo-1,6-dihydropyrimidin-2-yl)-1H-indole-3-carbonitriles as novel xanthine oxidase inhibitors” (Eur J Med Chem, 2022).

SMILES strings stand for the structures. The source made the active and inactive calls. No cut-off for these calls is given here.

Usually IC50 stands for the concentration at which inhibition is half-maximal. Lower therefore signals greater potency.

Xanthine dehydrogenase/oxidase, sequence (P47989 whole entry): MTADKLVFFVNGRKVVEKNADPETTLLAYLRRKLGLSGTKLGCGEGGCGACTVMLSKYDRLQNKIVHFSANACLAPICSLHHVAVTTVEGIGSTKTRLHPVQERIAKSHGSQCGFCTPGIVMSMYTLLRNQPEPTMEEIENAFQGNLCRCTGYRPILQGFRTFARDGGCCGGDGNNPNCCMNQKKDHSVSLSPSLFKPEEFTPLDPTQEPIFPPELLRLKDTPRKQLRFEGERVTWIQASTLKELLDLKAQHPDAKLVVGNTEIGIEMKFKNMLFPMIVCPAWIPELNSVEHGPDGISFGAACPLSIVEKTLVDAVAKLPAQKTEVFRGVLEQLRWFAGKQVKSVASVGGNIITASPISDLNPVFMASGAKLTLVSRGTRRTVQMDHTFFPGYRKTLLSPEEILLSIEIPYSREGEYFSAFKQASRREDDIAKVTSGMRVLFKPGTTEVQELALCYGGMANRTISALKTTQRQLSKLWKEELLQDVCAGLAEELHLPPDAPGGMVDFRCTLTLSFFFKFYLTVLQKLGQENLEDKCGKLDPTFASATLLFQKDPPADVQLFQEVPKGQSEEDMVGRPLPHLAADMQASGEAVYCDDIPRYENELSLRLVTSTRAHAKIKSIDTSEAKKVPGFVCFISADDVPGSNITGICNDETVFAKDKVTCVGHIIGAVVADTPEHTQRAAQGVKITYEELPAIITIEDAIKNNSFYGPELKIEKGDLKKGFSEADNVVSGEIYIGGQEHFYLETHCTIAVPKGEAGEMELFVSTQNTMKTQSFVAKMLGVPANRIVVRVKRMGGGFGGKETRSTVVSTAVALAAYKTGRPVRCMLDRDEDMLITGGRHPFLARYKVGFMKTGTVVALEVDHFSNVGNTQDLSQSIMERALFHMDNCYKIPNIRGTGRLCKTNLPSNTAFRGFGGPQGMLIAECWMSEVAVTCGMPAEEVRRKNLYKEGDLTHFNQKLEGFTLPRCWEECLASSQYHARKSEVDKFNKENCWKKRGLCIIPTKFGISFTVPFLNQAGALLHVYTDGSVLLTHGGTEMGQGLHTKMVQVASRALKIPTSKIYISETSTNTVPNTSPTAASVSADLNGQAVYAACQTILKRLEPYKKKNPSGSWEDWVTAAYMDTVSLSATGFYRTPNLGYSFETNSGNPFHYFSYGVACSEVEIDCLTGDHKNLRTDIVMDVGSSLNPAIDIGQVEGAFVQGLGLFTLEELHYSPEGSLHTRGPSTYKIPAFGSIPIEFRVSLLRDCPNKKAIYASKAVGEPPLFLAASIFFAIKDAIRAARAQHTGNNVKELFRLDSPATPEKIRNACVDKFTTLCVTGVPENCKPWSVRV

One test has as its target Xanthine dehydrogenase/oxidase (Homo sapiens, UniProt P47989). As to the kind of experiment: Inhibition of xanthine oxidase (unknown origin) using xanthine as substrate incubated for 15 mins followed by substrate addition by spectrophotometric analysis.
`N#Cc1cn(C2CCCC2)c2cc(NC(=O)c3cc(=O)[nH]cn3)ccc12` registered an IC50 above 10 µM.

The compound `Cc1nc(C(=O)Nc2ccc3c(C#N)cn(C4CCCC4)c3c2)cc(=O)[nH]1` had an IC50 above 10 µM.

For `CC(C)(C)c1ccc(Cn2cc(C#N)c3cc(NC(=O)c4cc(=O)[nH]cn4)ccc32)cc1`, the IC50 is above 10 µM.

`CC(C)Cn1cc(C#N)c2ccc(NC(=O)c3cc(=O)[nH]cn3)cc21` yielded an IC50 above 10 µM.

In turn, `Cc1nc(-c2ccc(OCC(C)C)c(C#N)c2)sc1C(=O)O` [FEBUXOSTAT] showed an IC50 of 0.023 µM.

For the compound `CC(C)=CCn1cc(C#N)c2ccc(NC(=O)c3cc(=O)[nH]cn3)cc21`, the IC50 is above 10 µM.

Regarding `C=CCn1cc(C#N)c2ccc(NC(=O)c3cc(=O)[nH]cn3)cc21`, the IC50 was above 10 µM.

As to `N#Cc1cn(CC2CC2)c2cc(NC(=O)c3cc(=O)[nH]cn3)ccc12`, the IC50 was above 10 µM.

In turn, `CC(C)n1cc(C#N)c2ccc(NC(=O)c3cc(=O)[nH]cn3)cc21` had an IC50 above 10 µM.

In turn, `COc1ccnc(-c2ccc3c(c2)c(C#N)cn3C(C)C)n1` gave an IC50 above 10 µM.

The next test has as its system Rattus norvegicus. As to the kind of experiment: Anti-hyperuricemic activity against potassium oxonate-induced acute hyperuricemia Sprague-Dawley rat model assessed as reduction in serum uric acid level at 10 mg/kg, po pretreated with potassium oxonate for 1 hr followed by compound treatment and measured after 8 hrs. In kind it is functional, organism-based.
With `N#Cc1cn(C2CCCC2)c2ccc(NC(=O)c3cc(=O)[nH]cn3)cc12`, the result was Active.

On to `CC(C)n1cc(C#N)c2cc(-c3nccc(O)n3)ccc21`, for which the result was Active.

Turning to `Cc1nc(-c2ccc(OCC(C)C)c(C#N)c2)sc1C(=O)O` [FEBUXOSTAT], the result was Active.

On to `Oc1ncnc2[nH]ncc12`, for which the result was Active.
